Results: PMC6219668 (Oncotarget, 2018)
Like-named read-outs stand apart in the source and are kept apart here.

Columns and labels:
[1] = test system: KYSE450; assay: cells; type: cell-based; conditions: Homo sapiens, KYSE-450; KYSE450, 72 h
[2] = test system: SK-MEL-2; assay: cells; type: cell-based; conditions: Homo sapiens, SK-MEL-2, 72 h
[3] = test system: MELJUSO; assay: cells; type: cell-based; conditions: Homo sapiens, MEL-JUSO, 72 h
[4] = test system: MDA-MB-415; assay: cells; type: cell-based; conditions: Homo sapiens, MDA-MB-415, 72 h
[5] = test system: HCC-4006; assay: cells; type: cell-based; conditions: Homo sapiens, HCC4006; HCC-4006, 72 h
[6] = test system: A-375; assay: cells; type: cell-based; conditions: Homo sapiens, A-375, 72 h
[7] = test system: KYSE150; assay: cells; type: cell-based; conditions: Homo sapiens, KYSE-150; KYSE150, 72 h
[8] = test system: SK-MEL-5; assay: cells; type: cell-based; conditions: Homo sapiens, SK-MEL-5, 72 h
[9] = test system: JeKo-1 mantle cell lymphoma cells; design: method as in Brain C et al, manuscript in preparation; conditions: RB1-proficient; ref Brain C et al, manuscript in preparation; cited from earlier work
[10] = test system: SK-MEL-5; assay: cells; type: cell-based; conditions: Homo sapiens, SK-MEL-5, 72 h; remark: listed apart in the source
[11] = test system: MGH051; assay: cells; type: cell-based; conditions: MGH051, 72 h
[12] = test system: HBCx-8; type: in vivo; conditions: HBCx-8, Breast, TNBC, Rb present; 125 mg/kg bid × 21
[13] = test system: HBRX1286; type: in vivo; conditions: HBRX1286, Breast, TNBC, Rb absent; 250 mg/kg qd
[14] = test system: HBCx-10; type: in vivo; conditions: HBCx-10, Breast, TNBC, Rb absent; 125 mg/kg bid × 21
[15] = Maximum tolerated dosage; type: in vivo; conditions: mice, once daily
[16] = test system: TE-14; assay: cells; type: cell-based; conditions: TE-14, 72 h
[17] = test system: T-47d; assay: cells; type: cell-based; conditions: Homo sapiens, T47D, 72 h
[18] = test system: SK-MEL-30; assay: cells; type: cell-based; conditions: Homo sapiens, SK-MEL-30, 72 h
[19] = test system: NCI-H2009; design: method as in Brain C et al, manuscript in preparation; conditions: RB1-deleted lung adenocarcinoma line; up to 10 μM; ref Brain C et al, manuscript in preparation; cited from earlier work
[20] = test system: KELLY; assay: cells; type: cell-based; conditions: 72 h
[21] = test system: HBCx-12; type: in vivo; conditions: HBCx-12, Breast, TNBC, Rb present; 125 mg/kg bid × 21
[22] = test system: MELJUSO; assay: cells; type: cell-based; conditions: Homo sapiens, MEL-JUSO, 72 h; remark: listed apart in the source
[23] = test system: HBCx-14; type: in vivo; conditions: HBCx-14, Breast, TNBC, Rb absent; 125 mg/kg bid × 21
[24] = test system: HBRX1600; type: in vivo; conditions: HBRX1600, Breast, TNBC, Rb present; 250 mg/kg qd
[25] = test system: KYSE30; assay: cells; type: cell-based; conditions: Homo sapiens, KYSE-30; KYSE30, 72 h
[26] = test system: LnCAP; assay: cells; type: cell-based; conditions: Homo sapiens, 72 h
[27] = test system: Hs 944.T; type: in vivo; conditions: Melanoma
[28] = test system: COR-L105; assay: cells; type: cell-based; conditions: Homo sapiens, COR-L105, 72 h
[29] = test system: TE-11; assay: cells; type: cell-based; conditions: Homo sapiens, TE-11, 72 h
[30] = test system: MEL-JUSO; type: in vivo; conditions: Melanoma
[31] = test system: OE33; assay: cells; type: cell-based; conditions: Homo sapiens, OE33, 72 h
[32] = test system: TE-10; assay: cells; type: cell-based; conditions: Homo sapiens, TE-10, 72 h
[33] = test system: HBCx-6; type: in vivo; conditions: HBCx-6, Breast, TNBC, Rb present; 125 mg/kg bid × 21
[34] = test system: A2058; assay: cells; type: cell-based; conditions: Homo sapiens, A2058, 72 h
[35] = test system: NCI-H1975; assay: cells; type: cell-based; conditions: Homo sapiens, NCI-H1975, 72 h
[36] = test system: CAMA-1; assay: cells; type: cell-based; conditions: Homo sapiens; CAMA-1, ER+ BC, dominant CDK4; read-out: IC50, mean ± SD
[37] = test system: REH; assay: cells; type: cell-based; conditions: Homo sapiens, ALL, dominant CDK6, read-out: IC50, mean ± SD
[38] = test system: T47D; assay: cells; type: cell-based; conditions: Homo sapiens, ER+ BC, dominant CDK4, read-out: IC50, mean ± SD
[39] = test system: MOLM-13; assay: cells; type: cell-based; conditions: Homo sapiens; MOLM-13, AML, dominant CDK6; read-out: IC50, mean ± SD

With `CN(C)C(=O)c1cc2cnc(Nc3ccc(N4CCNCC4)cn3)nc2n1C1CCCC1` [Ribociclib, 7-cyclopentyl-2-(5-piperazin-1-yl-pyridin-2-ylamino)-7H-pyrrolo[2,3-d]pyrimidine-6-carboxylic acid dimethylamide] as the molecule, how does the IC50 [1] read?
Its IC50 is > 10 µM.

What about the IC50 [2] of the same molecule?
Its IC50 is 4.81 µM.

What about the IC50 [3] of the same molecule?
Its IC50 is 0.89 µM.

What about the IC50 [4] of the same molecule?
Its IC50 is > 10 µM.

What about the IC50 [5] of the same molecule?
Its IC50 is 0.87 µM.

What about the IC50 [6] of the same molecule?
The IC50 was > 10 µM.

What about the IC50 [7] of the same molecule?
The IC50 was 6.7 µM.

What about the IC50 [8] of the same molecule?
Its IC50 is > 10 µM.

And the “effect on pRb and cell cycle” value [9]?
The value was “dephosphorylation of phosphorylated Rb (pRb) and concomitant G1 cell-cycle arrest”.

And the IC50 [10]?
The IC50 was 2.09 µM.

And the IC50 [11]?
The IC50 was 0.28 µM.

And the T/C [12]?
The T/C was 10.

What about the T/C [13] of the same molecule?
Its T/C is 82.

What about the T/C [14] of the same molecule?
Its T/C is 82.

What about the maximum tolerated dosage [15] of the same molecule?
The maximum tolerated dosage was 250 mg/kg.

And the IC50 [16]?
Its IC50 is > 10 µM.

What about the IC50 [17] of the same molecule?
Its IC50 is 0.25 µM.

And the IC50 [18]?
The IC50 was > 10 µM.

And the “effect on cell-cycle progression” value [19]?
Its value is “no effect”.

What about the IC50 [20] of the same molecule?
The IC50 was 0.27 µM.

What about the T/C [21] of the same molecule?
Its T/C is 33.

What about the IC50 [22] of the same molecule?
Its IC50 is > 10 µM.

And the T/C [23]?
Its T/C is 92.

And the T/C [24]?
Its T/C is 28.

And the IC50 [25]?
Its IC50 is 4.06 µM.

What about the IC50 [26] of the same molecule?
Its IC50 is 0.18 µM.

What about the T/C ([27]; 150 mg/kg qd) of the same molecule?
Its T/C is 36.

What about the T/C ([27]; 250 mg/kg qd) of the same molecule?
The T/C was 19.

And the IC50 [28]?
Its IC50 is > 10 µM.

What about the IC50 [29] of the same molecule?
The IC50 was > 10 µM.

What about the T/C ([30]; 75 mg/kg qd) of the same molecule?
The T/C was 47.

What about the T/C ([30]; 150 mg/kg qd) of the same molecule?
The T/C was 32.

And the T/C ([30]; 250 mg/kg qd)?
The T/C was 2.

What about the IC50 [31] of the same molecule?
Its IC50 is > 10 µM.

What about the IC50 [32] of the same molecule?
The IC50 was 1.01 µM.

What about the T/C [33] of the same molecule?
The T/C was 64.

What about the IC50 [34] of the same molecule?
The IC50 was > 10 µM.

What about the IC50 [35] of the same molecule?
The IC50 was > 10 µM.

For `CC(=O)c1c(C)c2cnc(Nc3ccc(N4CCNCC4)cn3)nc2n(C2CCCC2)c1=O` [Palbociclib, reference compound], which IC50 [36] is on record?
Its IC50 is 50 ± 24 µM.

And the IC50 [37]?
The IC50 was 60 ± 17 µM.

What about the IC50 [38] of the same molecule?
The IC50 was 66 ± 19 µM.

What about the IC50 [39] of the same molecule?
The IC50 was 47 ± 25 µM.
